Activity calls are given as the source filed them. The rule behind the calls is not given here.
Tested on: CCRIS mutagenicity, Ames/micronucleus/aberration tests
Experiment: CCRIS mutagenicity studies

Oc1ccc(Cl)cc1Cl
mutagenic call (End Point: IN VITRO CHROMOSOMAL ABERRATIONS, Test System: CHO CELLS, Metabolic Activation: RAT, LIVER, S-9, AROCLOR 1254): inactive; negative | mutagenic call (End Point: IN VITRO CHROMOSOMAL ABERRATIONS, Test System: CHO CELLS, Metabolic Activation: RAT, LIVER, S-9, PHENOBARBITAL AND BETA-NAPHTHOFLAVONE): active; positive | mutagenic call (End Point: IN VITRO CHROMOSOMAL ABERRATIONS, Test System: TK6 HUMAN LYMPHOBLASTS, Metabolic Activation: NONE): inactive; negative; authors reported the results as equivocal | mutagenic call (Test System: AMES SALMONELLA TYPHIMURIUM, Strain/Indicator: TA98, Metabolic Activation: HAMSTER, LIVER, S-9, AROCLOR 1254, Method: PREINCUBATION): inactive; negative | mutagenic call (Test System: AMES SALMONELLA TYPHIMURIUM, Strain/Indicator: TA98, Metabolic Activation: NONE, Method: PREINCUBATION): inactive; negative | mutagenic call (Test System: AMES SALMONELLA TYPHIMURIUM, Strain/Indicator: TA98, Metabolic Activation: RAT, LIVER, S-9, AROCLOR 1254, Method: PREINCUBATION): inactive; negative | mutagenic call (Test System: AMES SALMONELLA TYPHIMURIUM, Strain/Indicator: TA98, Metabolic Activation: S-9, Method: STANDARD PLATE): inactive; negative | mutagenic call (Test System: AMES SALMONELLA TYPHIMURIUM, Strain/Indicator: TA100, Metabolic Activation: HAMSTER, LIVER, S-9, AROCLOR 1254, Method: PREINCUBATION): inactive; negative | mutagenic call (Test System: AMES SALMONELLA TYPHIMURIUM, Strain/Indicator: TA100, Metabolic Activation: NONE, Method: PREINCUBATION): inactive; negative | mutagenic call (Test System: AMES SALMONELLA TYPHIMURIUM, Strain/Indicator: TA100, Metabolic Activation: RAT, LIVER, S-9, AROCLOR 1254, Method: PREINCUBATION): inactive; negative | mutagenic call (Test System: AMES SALMONELLA TYPHIMURIUM, Strain/Indicator: TA100, Metabolic Activation: S-9, Method: STANDARD PLATE): inactive; negative | mutagenic call (Test System: AMES SALMONELLA TYPHIMURIUM, Strain/Indicator: TA1535, Metabolic Activation: NONE, Method: PREINCUBATION): inactive; negative | mutagenic call (Test System: AMES SALMONELLA TYPHIMURIUM, Strain/Indicator: TA1535, Metabolic Activation: RAT, LIVER, S-9, AROCLOR 1254, Method: PREINCUBATION): inactive; negative | mutagenic call (Test System: AMES SALMONELLA TYPHIMURIUM, Strain/Indicator: TA1537, Metabolic Activation: HAMSTER, LIVER, S-9, AROCLOR 1254, Method: PREINCUBATION): inactive; negative | mutagenic call (Test System: AMES SALMONELLA TYPHIMURIUM, Strain/Indicator: TA1537, Metabolic Activation: NONE, Method: PREINCUBATION): inactive; negative | mutagenic call (Test System: AMES SALMONELLA TYPHIMURIUM, Strain/Indicator: TA1537, Metabolic Activation: RAT, LIVER, S-9, AROCLOR 1254, Method: PREINCUBATION): inactive; negative | mutagenic call (Test System: AMES SALMONELLA TYPHIMURIUM, Strain/Indicator: YG1021, Metabolic Activation: S-9, Method: STANDARD PLATE): inactive; negative | mutagenic call (Test System: AMES SALMONELLA TYPHIMURIUM, Strain/Indicator: YG1024, Metabolic Activation: S-9, Method: STANDARD PLATE): inactive; negative | mutagenic call (Test System: AMES SALMONELLA TYPHIMURIUM, Strain/Indicator: YG1026, Metabolic Activation: S-9, Method: STANDARD PLATE): inactive; negative | mutagenic call (Test System: AMES SALMONELLA TYPHIMURIUM, Strain/Indicator: YG1029, Metabolic Activation: S-9, Method: STANDARD PLATE): inactive; negative | mutagenic call (Test System: CHINESE HAMSTER V-79, Strain/Indicator: V-79/6-THIOGUANINE, Metabolic Activation: NONE, Method: STANDARD PLATE): inactive; negative | mutagenic call (Test System: MOUSE LYMPHOMA, Strain/Indicator: L5178Y (TK+/TK-), Metabolic Activation: NONE, Method: SUSPENSION/PLATE): active; positive

C#CC(OC(=O)NC1CCCCC1)(c1ccccc1)c1ccc(C)c(C)c1 (stereo unspecified)
mutagenic call (Test System: AMES SALMONELLA TYPHIMURIUM, Strain/Indicator: TA100, Metabolic Activation: NONE, Method: STANDARD PLATE): active; positive | mutagenic call (Test System: AMES SALMONELLA TYPHIMURIUM, Strain/Indicator: TA1535, Metabolic Activation: NONE, Method: STANDARD PLATE): active; positive | mutagenic call (Test System: UDS HUMAN FIBROBLASTS, Strain/Indicator: THY INCORP (NON-S-PHASE), Metabolic Activation: NONE, Method: AUTORADIOGRAPHY): active; positive

Nc1cccc2cnsc12
mutagenic call (Test System: AMES SALMONELLA TYPHIMURIUM, Strain/Indicator: TA98, Metabolic Activation: NONE, Method: STANDARD PLATE): active; positive
